Experimental data: paper PMC7076352 (Pharmaceutics, 2020)

Legend:
[1] = target: T1, CYP1A2 (Rattus norvegicus, UniProt P04799); test: In vitro cocktail CYP450 activity assay in rat liver microsomes, CYP1A2 (phenacetin probe)
T1 sequence (P04799 1-513): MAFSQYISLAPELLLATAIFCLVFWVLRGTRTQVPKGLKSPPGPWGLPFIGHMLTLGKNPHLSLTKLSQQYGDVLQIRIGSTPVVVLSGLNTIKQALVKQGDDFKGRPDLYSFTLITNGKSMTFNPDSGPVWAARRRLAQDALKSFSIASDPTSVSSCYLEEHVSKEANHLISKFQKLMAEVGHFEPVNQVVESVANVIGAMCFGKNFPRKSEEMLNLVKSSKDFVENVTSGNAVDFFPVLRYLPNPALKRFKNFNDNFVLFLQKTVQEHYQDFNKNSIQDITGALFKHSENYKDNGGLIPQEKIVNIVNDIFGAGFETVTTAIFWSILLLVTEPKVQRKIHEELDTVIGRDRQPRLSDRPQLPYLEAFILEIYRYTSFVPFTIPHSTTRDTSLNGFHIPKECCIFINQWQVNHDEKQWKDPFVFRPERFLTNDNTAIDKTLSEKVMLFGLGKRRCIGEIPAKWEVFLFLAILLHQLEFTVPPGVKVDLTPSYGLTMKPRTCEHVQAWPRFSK
Procedure: (§1) (OHBUP-[D6]) and 5 nM 4′-hydroxydiclofenac-[^13C6] (OHDIC-[^13C6]) as internal standards (ISs). […]
(§2) standard addition experiments. Each group included four concentration levels. For the PK […]
(§3) The probe compounds, viz. […]
(§4) chosen after incubating all the recruited substrates. In order to assure the linear relationship […]
(§5) The incubation system was also optimized in terms of substrate concentrations. The substrates concentrations of […]

[2] = in vivo; parameters: species or system Sprague-Dawley (SD) rats; settings: Sprague-Dawley, plasma, rat
Procedure: At each time, 0.5 mL of blood was collected in the heparin sodium tubes. Plasma was separated by centrifugation at 4000 rpm for 10 min and stored below −80 °C until bioanalysis. Oasis PRiME HLB SPE cartridges (1 cc/30 mg, Waters, Milford, MA, USA) were used to process the plasma samples (Supplementary Materials).
The generic layout of instrumentation setup of the LVDI-UHPLC-MS/MS was conducted on a Shimadzu UHPLC system consisting of two LC-20ADXR pumps, a DGU-20A3R degasser, and a CBM-20A controller (Kyoto, Japan) with a SCIEX 4500 QTRAP mass spectrometer mounted with an electron spray ionization (ESI) interface as well as an electronic 6-port/2-channel valve (Foster City, CA, USA). Analyst software package (version 1.6.2, SCIEX) was implemented to control and synchronize the entire system, and also for data acquisition and processing. A single analytical run was fragmented into two phases, namely, loading and elution phases, by switching the electronic valve (Figure 2). At the loading phase, the valve was maintained at A-channel. The specimen aliquot of large volume delivered from the auto-sampler was captured onto a guard column. Meanwhile, the pumps were responsible for delivering the mobile phase at a high flow rate, aiming to dilute the sample solvent, thus facilitating the candidate constituents to concentrate on the pre-guard column. Then, the valve was automatically switched to the B-channel to trigger the elution phase. The trapped components were flushed from the pre-guard column into an analytical column, and underwent multiple reaction monitoring (MRM) analysis on the optimized LC gradients. The detailed information of LVDI-UHPLC-MS/MS analysis for pharmacokinetic and cocktail studies is shown in the Supplementary Materials section.

[3] = target: T2, CYP2E1 (Rattus norvegicus, UniProt P05182); settings: IC50 CYP2E1, single components; RLM 0.2 mg/mL, 15 min, triplicate, mean ± SD
[4] = test system: CYP2C19; test: In vitro cocktail CYP450 activity assay in rat liver microsomes, CYP2C19 (omeprazole probe)
Procedure: as §1, §2, §3, §4, §5

[5] = test system: CYP2B6; test: In vitro cocktail CYP450 activity assay in rat liver microsomes, CYP2B6 (bupropion probe)
Procedure: as §1, §2, §3, §4, §5

[6] = test system: CYP3A4; test: in vitro
Procedure: as §1, §2, §3, §4, §5

[7] = test system: CYP2C9; test: In vitro cocktail CYP450 activity assay in rat liver microsomes, CYP2C9 (tolbutamide probe); settings: Sprague-Dawley, rat, pooled rat liver microsomes, pH 7.4, probe tolbutamide (18 µM, in seven-probe cocktail), IC50 CYP2C9, single components; RLM 0.2 mg/mL, 15 min, triplicate, mean ± SD
Procedure: as §1, §2, §3, §4, §5

[8] = test system: CYP2D6; test: in vitro; settings: Sprague-Dawley, rat, microsomes, pH 7.4, IC50 CYP2D6
Procedure: as §1, §2, §3, §4, §5

[9] = target: T2, CYP2E1; settings: Sprague-Dawley, rat, 15 min, pH 7.4
[10] = at the Cmax level in rat plasma, calculated from the dose–response curve

T2 sequence (P05182 whole entry): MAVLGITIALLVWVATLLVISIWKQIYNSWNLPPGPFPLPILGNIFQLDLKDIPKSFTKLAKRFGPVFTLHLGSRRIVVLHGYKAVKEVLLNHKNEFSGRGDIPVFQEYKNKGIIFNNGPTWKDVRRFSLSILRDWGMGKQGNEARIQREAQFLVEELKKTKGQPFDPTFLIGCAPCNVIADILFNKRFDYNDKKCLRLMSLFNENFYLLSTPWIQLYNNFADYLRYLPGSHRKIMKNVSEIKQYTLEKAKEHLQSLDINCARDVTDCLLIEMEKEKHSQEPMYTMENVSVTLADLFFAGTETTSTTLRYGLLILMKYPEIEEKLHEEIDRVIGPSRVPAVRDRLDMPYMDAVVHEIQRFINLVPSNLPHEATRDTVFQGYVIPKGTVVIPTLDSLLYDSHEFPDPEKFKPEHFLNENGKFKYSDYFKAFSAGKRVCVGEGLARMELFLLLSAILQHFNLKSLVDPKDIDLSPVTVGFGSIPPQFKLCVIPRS

## CC(C)=CCC[C@](C)(O[C@@H]1O[C@H](CO)[C@@H](O)[C@H](O)[C@H]1O)[C@H]1CC[C@]2(C)[C@@H]1[C@H](O)C[C@@H]1[C@@]3(C)CC[C@H](O)C(C)(C)[C@@H]3[C@@H](O[C@@H]3O[C@H](CO)[C@@H](O)[C@H](O)[C@H]3O[C@@H]3O[C@@H](C)[C@H](O)[C@@H](O)[C@H]3O)C[C@]12C [GRe, ginsenoside Re]
[1]; IC50 CYP1A2, single components, RLM 0.2 mg/mL, 15 min, triplicate, mean ± SD
  IC50: 94.4 ± 4.52 µM
[1]; [10]
  Response (% control) CYP1A2: 99.99 % control
[2]; 0.083 h after oral CNP
  concentration at […]: 0.24 ± 0.02 ng/mL
[2]; 0.25 h after oral CNP
  concentration at 0.25 h: 0.25 ± 0.01 ng/mL
[2]; 0.5 h after oral CNP
  concentration at 0.5 h: 0.33 ± 0.11 ng/mL
[2]; 1 h after oral CNP
  concentration at 1 h: 0.24 ± 0.04 ng/mL
[2]; 1.5 h after oral CNP
  concentration at 1.5 h: 0.24 ± 0.03 ng/mL
[2]; 2 h after oral CNP
  concentration at 2 h: 0.23 ± 0.02 ng/mL
[2]; 3 h after oral CNP
  concentration at 3 h: 0.28 ± 0.1 ng/mL
[2]; 4 h after oral CNP
  concentration at 4 h: 0.28 ± 0.07 ng/mL
[2]; 6 h after oral CNP
  concentration at 6 h: 0.23 ± 0.03 ng/mL
[2]; 8 h after oral CNP
  concentration at 8 h: 0.14 ± 0.03 ng/mL
[2]; po
  half-life: 5.99 ± 3.86 h
[2]; po, 60 mg/kg
  AUC(0-inf): 2.9 ± 0.6 ng·h/mL
  AUC(0-t): 1.82 ± 0.19 ng·h/mL
  Cmax: 0.29 ± 0.04 ng/mL
  Tmax: 2.6 ± 0.89 h
  half-life: 5.25 ± 2.27 h
[2]; po, 60 mg·kg^−1
  concentration at 0.25 h: 0.26 ± 0.02 ng/mL
  concentration at 0.5 h: 0.24 ± 0.02 ng/mL
  concentration at 1 h: 0.25 ± 0.02 ng/mL
  concentration at 1.5 h: 0.22 ± 0.02 ng/mL
  concentration at 2 h: 0.21 ± 0.01 ng/mL
  concentration at 3 h: 0.27 ± 0.04 ng/mL
  concentration at 4 h: 0.25 ± 0.05 ng/mL
  concentration at 6 h: 0.24 ± 0.06 ng/mL
  concentration at 8 h: 0.13 ± 0.01 ng/mL
[3]
  IC50: 25.6 ± 9.03 µM
[4]; Sprague-Dawley, rat, pooled rat liver microsomes, pH 7.4, probe omeprazole (1.07 µM, in seven-probe cocktail), IC50 CYP2C19, single components, RLM 0.2 mg/mL, 15 min, triplicate, mean ± SD
  IC50 at 15 min: 50.5 ± 15.4 µM
[4]; [10]
  Response (% control) CYP2C19: 98.36 % control
[5]; Sprague-Dawley, rat, pooled rat liver microsomes, pH 7.4, probe bupropion (90 µM, in seven-probe cocktail), IC50 CYP2B6, single components, RLM 0.2 mg/mL, 15 min, triplicate, mean ± SD
  IC50 at 15 min: 39.4 ± 4.81 µM
[5]; [10]
  Response (% control) CYP2B6: 99.64 % control
[6]; Sprague-Dawley, rat, microsomes, pH 7.4, IC50 CYP3A4, single components, RLM 0.2 mg/mL, 15 min, triplicate, mean ± SD
  IC50: 75.1 ± 7.24 µM
[6]; [10]
  Response (% control) CYP3A4: 99.99 % control
[7]
  IC50 at 15 min: > 200 µM
[8]
  IC50 at 15 min: > 200 µM
[9]
  Response (% control) CYP2E1: 97.35 % control
